For one data set, the system named is B16 melanoma 4A5 cells. Nature of the data set: Melanin production inhibitory effect (theophylline-induced melanin production). It is filed as cell-based, mouse. To be noted: melanin production inhibition rate, sample at a concentration of 10 mM or less, 3 days culture, theophylline 1 mmol/L, N=4. The method, boiled down:
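Mouse B16 4A5 cells cultured 24 h in D-MEM/10% FBS, then 3 days with 1 mmol/L theophylline (final) plus sample at 10 mM or less. Melanin measured by alkali solubilization (1 mol/L NaOH, 60° C, 30 min, A405) against synthetic melanin standard, normalized to BCA protein. Inhibition rate relative to normal and control groups, scored as graded ranges; N=4.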

Data set [1] deals with Normal human epidermal keratinocytes. Description: Antioxidant test (ROS production after H2O2 treatment, DCFHDA probe). The data set is classed as cell-based. To be noted: sample at a concentration of 10 mM or less, 24 h culture, 0.2 mM H2O2 for 2 hours, ROS per unit protein, N=4. On the procedure:
Normal human epidermal keratinocytes were seeded in a 96-well plate using KG2 medium to a cell density of 2.0×10^4 cells/well. After 24 hours of pre-incubation, samples adjusted to a predetermined concentration with KG2 medium were added to each well. After 24 hours of culture and removal of the medium, the wells were washed with HBSS(−) and the ROS-reactive fluorescent probe DCFHDA was allowed to incorporate for 30 minutes. The wells were washed again with HBSS(—), treated with 0.2 mM H2O2, and cultured for 2 hours. The fluorescence intensity was measured, and the amount of ROS produced per unit protein was calculated by dividing the fluorescence intensity by the amount of protein quantified by the BCA method.
The antioxidant effect when the sample was measured at a concentration of 10 mM or less was expressed as follows. The measurement was performed with N=4. • <20%: ± • 20-40%: + • 40-70%: ++ • 70-100%: +++

The subject of data set [2] is Normal human dermal fibroblasts (NHDF). Description: Hyaluronic acid production promoting effect (ELISA of supernatant). The data set is classed as cell-based. Particulars: amount of hyaluronic acid produced, % with control group taken as 100%; sample at 10 mmol/L or less, 48 hours, N=3. The method, boiled down:
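NHDF pre-incubated 24 h, then exposed to samples at 10 mmol/L or less in serum-free D-MEM for 48 h. Supernatant hyaluronic acid quantified by ELISA, N=3, expressed as % of control (100%) and scored ± (<100%), + (100-120%), ++ (120-150%), +++ (150%).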
Background: ELISA stands for enzyme-linked immunosorbent assay.

The test system of data set [3] is Normal human dermal fibroblasts. Description: Collagen production promoting effect (ELISA of supernatant). The data set is classed as cell-based. To be noted: amount of collagen produced, % with control group taken as 100%; sample at 10 mmol/L or less, 48 hours, N=3. Summed up:
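Fibroblasts in D-MEM with 5% FBS were pre-incubated 24 h, then exposed to samples for 48 h. Free collagen in supernatant quantified by ELISA (N=3), expressed as % of control (control = 100%) at ≤10 mmol/L, scored ± (<100%), + (100-120%), ++ (120%).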

Data set [4] is described as follows: Stability test (residual rate by HPLC, odor, coloring). The data set is classed as physicochemical. Particulars: 1% aqueous solution; for Coloring / Odor: total score of 10 panelists. The method, boiled down:
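A 1% aqueous solution of each test sample was brought to pH 6 with dilute potassium hydroxide aqueous solution, sealed in a 50 mL screw tube, and stored. Residual rate was calculated from HPLC peak area on a Shimadzu liquid chromatograph. Ten panelists scored odor and coloring on a 1–3 scale each, and the summed scores were classified.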

The mark [5] stands for this setting: pH 6, stored at 50° C., four weeks later.
Setting [6] is: pH 6, stored at 50° C., two weeks later.

SMILES strings stand for the structures.

For the compound `O=C1O[C@H]([C@@H](O)CO)C(O)=C1OCC(O)CO` (stereo partly drawn) [2-O-glyceryl ascorbic acid, reference compound], in the data set on B16 melanoma 4A5 cells, the “Melanin production inhibition effect” value was “+ (20-40%: +)”. Besides, the “Antioxidant Effects” value in data set [1] is reported as “± (<20%: ±)”. Further, the “Hyaluronic acid production promoting effect” value in data set [2] is reported as “+ (100-120%: +)”. In addition, the “Collagen production promoting effect” value in data set [3] is “+ (100-120%: +)”.

On to `O=C1O[C@H]([C@@H](O)CO)C(OCC(O)CO)=C1O` (stereo partly drawn) [3-O-glyceryl ascorbic acid, reference compound], for which, in the data set with B16 melanoma 4A5 cells, the “Melanin production inhibition effect” value is on record as “+ (20-40%: +)”. For the same compound, in data set [4] (pH 6, 50° C., initial), the Residual rate entry is “⊚ (⊚: 90% or more)”, the Coloring entry was “◯ (◯: Total score of 10 panelists is 25 or more)” and the Odor result was “◯ (◯: Total score of 10 panelists is 20-24)”. In data set [4] (setting [5]), the Residual rate entry is recorded as “Δ (Δ: 60% or more, less than 80%)”; the Coloring result was “Δ (Δ: Total score of 10 panelists is 16-24)”; the Odor result is recorded as “Δ (Δ: Total score of 10 panelists is 16-19)”. In data set [4] (setting [6]), the Residual rate result is “◯ (◯: 80% or more, less than 90%)”; the Coloring result is reported as “Δ (Δ: Total score of 10 panelists is 16-24)”; the Odor entry is “Δ (Δ: Total score of 10 panelists is 16-19)”. Besides, the “Antioxidant Effects” value in data set [1] is “+ (20-40%: +)”. Also, the “Hyaluronic acid production promoting effect” value in data set [2] is “+ (100-120%: +)”. Moreover, in data set [3], the “Collagen production promoting effect” value was “+ (100-120%: +)”.

For `CCOC1=C(OCC(C)(C)O)C(=O)O[C@@H]1[C@@H](O)CO` [Synthesis Example 3, 2-O-(2-hydroxyisobutyl)-3-O-ethylascorbic acid], the “Melanin production inhibition effect” value in the data set on B16 melanoma 4A5 cells is recorded as “+++ (60-100%: +++)”. In data set [1], the “Antioxidant Effects” value is reported as “++ (40-70%: ++)”. In addition, the “Collagen production promoting effect” value in data set [3] is given as “++ (120%: ++)”.

`CCOC1=C(OCC(C)(C)O)[C@@H]([C@@H](O)CO)OC1=O` [Synthesis Example 18, 2-O-ethyl-3-O-(2-hydroxyisobutyl) ascorbic acid]: the “Melanin production inhibition effect” value in the data set with B16 melanoma 4A5 cells was “+++ (60-100%: +++)”. The “Antioxidant Effects” value in data set [1] is on record as “++ (40-70%: ++)”. Further, in data set [2], the “Hyaluronic acid production promoting effect” value was “++ (120-150%: ++)”. Moreover, the “Collagen production promoting effect” value in data set [3] was “++ (120%: ++)”.

Take `CC(O)COC1=C(OCC(C)(C)O)[C@@H]([C@@H](O)CO)OC1=O` (stereo partly drawn) [Synthesis Example 39, 3-O-(2-hydroxyisobutyl)-2-O-(2-hydroxypropyl) ascorbic acid]: in the data set on B16 melanoma 4A5 cells, the “Melanin production inhibition effect” value is “+++ (60-100%: +++)”. In addition, the Residual rate entry is recorded as “⊚ (⊚: 90% or more)” in data set [4] (pH 6, 50° C., initial); “⊚ (⊚: 90% or more)” in data set [4] (setting [5]); “⊚ (⊚: 90% or more)” in data set [4] (setting [6]). Besides, the Coloring result in data set [4] (pH 6, 50° C., initial) is given as “⊚”; in data set [4] (setting [5]) it was “◯ (◯: Total score of 10 panelists is 25 or more)”; in data set [4] (setting [6]), “◯ (◯: Total score of 10 panelists is 25 or more)”. Also, the Odor entry in data set [4] (pH 6, 50° C., initial) is recorded as “⊚ (⊚: Total score of 10 panelists is 25 or more)”; in data set [4] (setting [5]) it was “◯ (◯: Total score of 10 panelists is 20-24)”; in data set [4] (setting [6]), “◯ (◯: Total score of 10 panelists is 20-24)”. For the same compound, the “Hyaluronic acid production promoting effect” value in data set [2] is reported as “+++ (150%: +++)”. For the same compound, the “Collagen production promoting effect” value in data set [3] was “+ (100-120%: +)”.

As for `CCC(O)COC1=C(OCC(C)(C)O)[C@@H]([C@@H](O)CO)OC1=O` (stereo partly drawn) [Synthesis Example 40, 3-O-(2-hydroxyisobutyl)-2-O-(2-hydroxybutyl) ascorbic acid], the “Melanin production inhibition effect” value in the data set on B16 melanoma 4A5 cells is “++ (40-60%: ++)”. Moreover, in data set [4] (pH 6, 50° C., initial), the Residual rate result is reported as “⊚ (⊚: 90% or more)”, the Coloring result is “◯ (◯: Total score of 10 panelists is 25 or more)” and the Odor result is recorded as “◯ (◯: Total score of 10 panelists is 20-24)”. Moreover, in data set [4] (setting [5]), the Residual rate result is “⊚ (⊚: 90% or more)”, the Coloring entry was “◯ (◯: Total score of 10 panelists is 25 or more)” and the Odor entry is given as “◯ (◯: Total score of 10 panelists is 20-24)”. Moreover, in data set [4] (setting [6]), the Residual rate result was “⊚ (⊚: 90% or more)”, the Coloring entry is listed as “◯ (◯: Total score of 10 panelists is 25 or more)” and the Odor result is “◯ (◯: Total score of 10 panelists is 20-24)”. For the same compound, in data set [2], the “Hyaluronic acid production promoting effect” value is given as “++ (120-150%: ++)”. Besides, the “Collagen production promoting effect” value in data set [3] was “++ (120%: ++)”.

With `CCCCCCCCC(O)COC1=C(OCC(C)(C)O)[C@@H]([C@@H](O)CO)OC1=O` (stereo partly drawn) [Synthesis Example 41, 3-O-(2-hydroxyisobutyl)-2-O-(2-hydroxydecyl) ascorbic acid], the “Melanin production inhibition effect” value with B16 melanoma 4A5 cells was “++ (40-60%: ++)”. Moreover, in data set [4] (pH 6, 50° C., initial), the Residual rate entry is listed as “⊚ (⊚: 90% or more)”, the Coloring result was “◯ (◯: Total score of 10 panelists is 25 or more)” and the Odor entry is “◯ (◯: Total score of 10 panelists is 20-24)”. Further, in data set [4] (setting [5]), the Residual rate entry is recorded as “⊚ (⊚: 90% or more)”, the Coloring entry is “◯ (◯: Total score of 10 panelists is 25 or more)” and the Odor entry is reported as “◯ (◯: Total score of 10 panelists is 20-24)”. For the same compound, in data set [4] (setting [6]), the Residual rate entry is “⊚ (⊚: 90% or more)”, the Coloring entry is “◯ (◯: Total score of 10 panelists is 25 or more)” and the Odor result was “◯ (◯: Total score of 10 panelists is 20-24)”. The “Hyaluronic acid production promoting effect” value in data set [2] was “++ (120-150%: ++)”. Further, the “Collagen production promoting effect” value in data set [3] is on record as “+ (100-120%: +)”.

For the compound `CCCCCCCCCCCCCCC(O)COC1=C(OCC(C)(C)O)[C@@H]([C@@H](O)CO)OC1=O` (stereo partly drawn) [Synthesis Example 42, 3-O-(2-hydroxyisobutyl)-2-O-(2-hydroxyhexadecyl) ascorbic acid], the “Melanin production inhibition effect” value in the data set with B16 melanoma 4A5 cells is listed as “++ (40-60%: ++)”. For the same compound, in data set [4] (pH 6, 50° C., initial), the Residual rate result is “⊚ (⊚: 90% or more)”, the Coloring result is on record as “◯ (◯: Total score of 10 panelists is 25 or more)” and the Odor entry is “◯ (◯: Total score of 10 panelists is 20-24)”. Also, in data set [4] (setting [5]), the Residual rate entry is on record as “⊚ (⊚: 90% or more)”, the Coloring result is reported as “◯ (◯: Total score of 10 panelists is 25 or more)” and the Odor entry is “◯ (◯: Total score of 10 panelists is 20-24)”. For the same compound, in data set [4] (setting [6]), the Residual rate entry is recorded as “⊚ (⊚: 90% or more)”, the Coloring entry is “◯ (◯: Total score of 10 panelists is 25 or more)” and the Odor result is “◯ (◯: Total score of 10 panelists is 20-24)”. Further, in data set [2], the “Hyaluronic acid production promoting effect” value is reported as “+++ (150%: +++)”. In addition, the “Collagen production promoting effect” value in data set [3] was “+ (100-120%: +)”.

On to `CC(C)(O)COC1=C(OCC(O)c2ccccc2)C(=O)OC1C(O)CO` (stereo not drawn) [Synthesis Example 43, 3-O-(2-hydroxyisobutyl)-2-O-(2-hydroxyethylbenzene) ascorbic acid], for which the “Melanin production inhibition effect” value in the data set with B16 melanoma 4A5 cells is recorded as “++ (40-60%: ++)”. In addition, in data set [4] (pH 6, 50° C., initial), the Residual rate entry was “⊚ (⊚: 90% or more)”, the Coloring entry is listed as “◯ (◯: Total score of 10 panelists is 25 or more)” and the Odor result is “◯ (◯: Total score of 10 panelists is 20-24)”. Besides, in data set [4] (setting [5]), the Residual rate entry was “⊚ (⊚: 90% or more)”, the Coloring result is reported as “◯ (◯: Total score of 10 panelists is 25 or more)” and the Odor entry is recorded as “◯ (◯: Total score of 10 panelists is 20-24)”. Besides, in data set [4] (setting [6]), the Residual rate result is “⊚ (⊚: 90% or more)”, the Coloring entry is listed as “◯ (◯: Total score of 10 panelists is 25 or more)” and the Odor result was “◯ (◯: Total score of 10 panelists is 20-24)”. For the same compound, the “Hyaluronic acid production promoting effect” value in data set [2] is “++ (120-150%: ++)”. Further, the “Collagen production promoting effect” value in data set [3] is listed as “++ (120%: ++)”.
